# Measurements reported in patent US11737466B2, “Method of improving the ability of plants to resistance diseases” (National Taiwan University, priority 2019, dated 2023).
# Tested on: Bacillus amyloliquefaciens WF02
# Assay: antagonistic assay (inhibition zone) on Bacillus amyloliquefaciens WF02 plate
# Format: cell-based
# Conditions: 100,000 ppm, 20 μL, 37° C., 48 hours, positive control, read-out: diameter of inhibition zone on WF02 plate
# Excerpt: To be used as leveling agents for the biological preparation, in the embodiment of the present invention, it is necessary to confirm that the Bidens pilosa extract of the present invention without the effect of inhibiting the growth of the Bacillus amyloliquefaciens WF02 of the present invention, so antagonistic assay was used; wherein ampicillin is known with the effect on inhibiting the growth of the Bacillus amyloliquefaciens, therefore, it was used as a positive control group. First, the Bacillus amyloliquefacien WF02 of the present invention was cultured in the above method and 100 μL of a bacterial solution with an OD600 value of 0.3, which approximately contains 10^8 CFU/mL, was uniformly applied to two agarose plates (diameter 9 cm) and a plurality of circular sterile filter papers (diameter 8 mm) was placed thereon; wherein one plate was for testing the higher concentration (125,000-200,000 ppm) of the Bidens pilosa of the present invention, and the other was for the lower concentration (300-2,000 ppm). […]
structure (smiles),measurement,value
CC1(C)S[C@@H]2[C@H](NC(=O)[C@H](N)c3ccccc3)C(=O)N2[C@H]1C(=O)O [ampicillin],zone of inhibition at 100000 ppm,~18.4 mm
